Assays:
[1] = biological target: TEAD1(210-426) binding to YAP(50-100) (Homo sapiens, UniProt P28347); experiment: TR-FRET Assay for TEAD1(210-426) Binding to YAP(50-100); conditions: His-TEAD 10 nM, YAP-Biotin peptide 50 nM
How it was run: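 10 nM His-TEAD1 preincubated 30 min at room temperature with compound (3-fold dilutions, 12 points, 1% DMSO), then 50 nM biotin-YAP peptide added.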

MSTO-211H cells = experiment: Proliferation Assay (CellTiter-Glo Luminescent Cell Viability Assay); type: cell-based; conditions: Homo sapiens, 96 hours treatment
How it was run: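 MSTO-211H cells, 1,500/well in RPMI 1640 with 10% FBS, plated overnight, then treated 96 h with 9-point 3-fold compound series in duplicate (DMSO below 0.5%). Viability by CellTiter-Glo luminescence; inhibition relative to DMSO wells, IC50 by four-parameter fit.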

Chain of TEAD1(210-426) binding to YAP(50-100) (P28347 209-426): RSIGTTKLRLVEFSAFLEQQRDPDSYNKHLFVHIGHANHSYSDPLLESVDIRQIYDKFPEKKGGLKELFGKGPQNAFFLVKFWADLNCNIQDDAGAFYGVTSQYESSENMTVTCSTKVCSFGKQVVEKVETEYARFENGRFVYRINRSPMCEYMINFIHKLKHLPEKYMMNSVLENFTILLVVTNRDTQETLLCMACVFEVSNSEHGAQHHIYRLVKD

| Structure (SMILES) | IC50 [1] | IC50 (MSTO-211H cells) |
| --- | --- | --- |
| CNc1ccnc(Cn2ccc(-c3nn(-c4ccc(C(F)(F)F)cc4)c4nccnc34)cc2=O)n1 [Compound 104, 1-((4-(methylamino)pyrimidin-2-yl)methyl)-4-(1-(4-(trifluoromethyl)phenyl)-1H-pyrazolo[3,4-b]pyrazin-3-yl)pyridin-2(1H)-one] | 100 to 1000 nM | ≤ 1000 nM |
| COCCOc1nccc(Cn2ccc(-c3nn(-c4ccc(C(F)(F)F)cc4)c4c(F)cccc34)cc2=O)n1 [Compound 134, 4-(7-fluoro-1-(4-(trifluoromethyl)phenyl)-1H-indazol-3-yl)-1-((2-(2-methoxyethoxy)pyrimidin-4-yl)methyl)pyridin-2(1H)-one] | ≤ 100 nM | ≤ 1000 nM |
| O=c1cc(-c2nn(-c3ccc(C(F)(F)F)cc3)c3ccccc23)ccn1Cc1cccnc1 [Compound 18, 1-(pyridin-3-ylmethyl)-4-(1-(4-(trifluoromethyl)phenyl)-1H-indazol-3-yl)pyridin-2(1H)-one] | ≤ 100 nM | ≤ 1000 nM |
| O=c1cc(-c2nn(-c3ccc(C(F)(F)F)cc3)c3ccccc23)ccn1Cc1cnccn1 [Compound 63, 1-(pyrazin-2-ylmethyl)-4-(1-(4-(trifluoromethyl)phenyl)-1H-indazol-3-yl)pyridin-2(1H)-one] | ≤ 100 nM | ≤ 1000 nM |
| Cn1ccnc1Cn1ccc(-n2nc(-c3ccc(C(F)(F)F)cc3)c3ncccc32)cc1=O [Compound 43, 1-((1-methyl-1H-imidazol-2-yl)methyl)-4-(3-(4-(trifluoromethyl)phenyl)-1H-pyrazolo[4,3-b]pyridin-1-yl)pyridin-2(1H)-one] | 100 to 1000 nM | ≤ 1000 nM |
| O=c1cc(-c2nn(-c3ccc(C(F)(F)F)cc3)c3ccccc23)ccn1Cc1ccnc(OCCO)n1 [Compound 93, 1-((2-(2-hydroxyethoxy)pyrimidin-4-yl)methyl)-4-(1-(4-(trifluoromethyl)phenyl)-1H-indazol-3-yl)pyridin-2(1H)-one] | ≤ 100 nM | ≤ 1000 nM |
| C[C@@H](c1ccccn1)n1ccc(-c2nn(-c3cccc(C(F)(F)F)c3)c3cccnc23)cc1=O [Compound 6, (S)-1-(1-(pyridin-2-yl)ethyl)-4-(1-(3-(trifluoromethyl)phenyl)-1H-pyrazolo[4,3-b]pyridin-3-yl)pyridin-2(1H)-one] | 100 to 1000 nM | 1000 to 10000 nM |
| CNc1nccc(Cn2ccc(-n3nc(-c4ccc(C(F)(F)F)cc4)c4ncccc43)cc2=O)n1 [Compound 42, 1-((2-(methylamino)pyrimidin-4-yl)methyl)-4-(3-(4-(trifluoromethyl)phenyl)-1H-pyrazolo[4,3-b]pyridin-1-yl)pyridin-2(1H)-one] | ≤ 100 nM | ≤ 1000 nM |
| Cc1cc(Cn2ccc(-c3nn(-c4ccc(C(F)(F)F)cc4)c4ccccc34)cc2=O)n(C)n1 [Compound 16, 1-((1,3-dimethyl-1H-pyrazol-5-yl)methyl)-4-(1-(4-(trifluoromethyl)phenyl)-1H-indazol-3-yl)pyridin-2(1H)-one] | 100 to 1000 nM | ≤ 1000 nM |
| CCC(c1ccccn1)n1ccc(-c2nn(-c3ccc(C(F)(F)F)cc3)c3cccnc23)cc1=O (stereo not shown) [Compound 7, 1-(1-(pyridin-2-yl)propyl)-4-(1-(4-(trifluoromethyl)phenyl)-1H-pyrazolo[4,3-b]pyridin-3-yl)pyridin-2(1H)-one] | ≤ 100 nM | 1000 to 10000 nM |
| CN(CCO)c1nccc(Cn2ccc(-n3nc(-c4ccc(C(F)(F)F)cc4)c4c(F)cccc43)cc2=O)n1 [Compound 139, 4-(4-fluoro-3-(4-(trifluoromethyl)phenyl)-1H-indazol-1-yl)-1-((2-((2-hydroxyethyl)(methyl)amino)pyrimidin-4-yl)methyl)pyridin-2(1H)-one] | ≤ 100 nM | ≤ 1000 nM |
| Nc1cc(Cn2ccc(-n3nc(-c4ccc(C(F)(F)F)cc4)c4ncccc43)cc2=O)ccn1 [Compound 121, 1-((2-aminopyridin-4-yl)methyl)-4-(3-(4-(trifluoromethyl)phenyl)-1H-pyrazolo[4,3-b]pyridin-1-yl)pyridin-2(1H)-one] | ≤ 100 nM | ≤ 1000 nM |
| COCCOc1nccc(Cn2ccc(-n3nc(-c4ccc(C(F)(F)F)cc4)c4c(F)cccc43)cc2=O)n1 [Compound 137, 4-(4-fluoro-3-(4-(trifluoromethyl)phenyl)-1H-indazol-1-yl)-1-((2-(2-methoxyethoxy)pyrimidin-4-yl)methyl)pyridin-2(1H)-one] | ≤ 100 nM | ≤ 1000 nM |
| C[C@@H](c1ccccn1)n1ccc(-c2nn(-c3ccc(F)cc3)c3cccnc23)cc1=O [Compound 4, (S)-4-(1-(4-fluorophenyl)-1H-pyrazolo[4,3-b]pyridin-3-yl)-1-(1-(pyridin-2-yl)ethyl)pyridin-2(1H)-one] | 100 to 1000 nM | 1000 to 10000 nM |
| Cn1nccc1Cn1ccc(-c2nn(-c3ccc(C(F)(F)F)cc3)c3ccccc23)cc1=O [Compound 37, 1-((1-methyl-1 H-pyrazol-5-yl)methyl)-4-(1-(4-(trifluoromethyl)phenyl)-1H-indazol-3-yl)pyridin-2(1H)-one] | ≤ 100 nM | ≤ 1000 nM |
| CNc1nccc(Cn2ccc(-c3nn(-c4ccc(C(F)(F)F)cc4)c4ccccc34)cc2=O)n1 [Compound 92, 1-((2-(methylamino)pyrimidin-4-yl)methyl)-4-(1-(4-(trifluoromethyl)phenyl)-1H-indazol-3-yl)pyridin-2(1H)-one] | ≤ 100 nM | ≤ 1000 nM |
| CNc1cc(Cn2ccc(-c3nn(-c4ccc(C(F)(F)F)cc4)c4ncccc34)cc2=O)ncn1 [Compound 98, 1-((6-(methylamino)pyrimidin-4-yl)methyl)-4-(1-(4-(trifluoromethyl)phenyl)-1H-pyrazolo[3,4-b]pyridin-3-yl)pyridin-2(1H)-one] | ≤ 100 nM | ≤ 1000 nM |
| Cn1cncc1Cn1ccc(-c2nn(-c3ccc(C(F)(F)F)cc3)c3ccccc23)cc1=O [Compound 39, 1-((1-methyl-1H-imidazol-5-yl)methyl)-4-(1-(4-(trifluoromethyl)phenyl)-1H-indazol-3-yl)pyridin-2(1H)-one] | > 1000 nM | ≤ 1000 nM |
| CNc1nccc(Cn2ccc(-n3nc(-c4ccc(C(F)(F)F)cc4)c4c(F)cccc43)cc2=O)n1 [Compound 135, 4-(4-fluoro-3-(4-(trifluoromethyl)phenyl)-1H-indazol-1-yl)-1-((2-(methylamino)pyrimidin-4-yl)methyl)pyridin-2(1H)-one] | ≤ 100 nM | ≤ 1000 nM |
| CN(CCO)c1nccc(Cn2ccc(-c3nn(-c4ccc(C(F)(F)F)cc4)c4ncccc34)cc2=O)n1 [Compound 72] | ≤ 100 nM | ≤ 1000 nM |
| Nc1ccnc(Cn2ccc(-c3nn(-c4ccc(C(F)(F)F)cc4)c4ccccc34)cc2=O)n1 [Compound 17, 1-((4-aminopyrimidin-2-yl)methyl)-4-(1-(4-(trifluoromethyl)phenyl)-1H-indazol-3-yl)pyridin-2(1H)-one] | ≤ 100 nM | ≤ 1000 nM |
| COc1ccc2c(c1)c(-c1ccn([C@@H](C)c3ccccn3)c(=O)c1)nn2-c1ccc(C(F)(F)F)cc1 [Compound 34, (S)-4-(5-methoxy-1-(4-(trifluoromethyl)phenyl)-1H-indazol-3-yl)-1-(1-(pyridin-2-yl)ethyl)pyridin-2(1H)-one] | ≤ 100 nM | ≤ 1000 nM |
| CNc1nccc([C@@H](C)n2ccc(-c3nn(-c4ccc(C(F)(F)F)cc4)c4ncccc34)cc2=O)n1 [Compound 130, (R)-1-(1-(2-(methylamino)pyrimidin-4-yl)ethyl)-4-(1-(4-(trifluoromethyl)phenyl)-1H-pyrazolo[3,4-b]pyridin-3-yl)pyridin-2(1H)-one] | 100 to 1000 nM | ≤ 1000 nM |
| C[C@@H](c1ccncc1)n1ccc(-c2nn(-c3ccc(C(F)(F)F)cc3)c3ccccc23)cc1=O [Compound 14, (S)-1-(1-(pyridin-4-yl)ethyl)-4-(1-(4-(trifluoromethyl)phenyl)-1H-indazol-3-yl)pyridin-2(1H)-one] | ≤ 100 nM | ≤ 1000 nM |
| COCCN(C)c1nccc(Cn2ccc(-c3nn(-c4ccc(C(F)(F)F)cc4)c4c(F)cccc34)cc2=O)n1 [Compound 147, 4-(7-fluoro-1-(4-(trifluoromethyl)phenyl)-1H-indazol-3-yl)-1-((2-((2-methoxyethyl)(methyl)amino)pyrimidin-4-yl)methyl)pyridin-2(1H)-one] | ≤ 100 nM | ≤ 1000 nM |
| CNc1nccc(Cn2ccc(-c3nn(-c4ccc(C(F)(F)F)cc4)c4cccc(F)c34)cc2=O)n1 [Compound 158, 4-(1-(4-((difluoro-13-methyl)-12-fluoranyl)phenyl)-4-fluoro-1H-indazol-3-yl)-1-((2-(methylamino)pyrimidin-4-yl)methyl)pyridin-2(1H)-one] | ≤ 100 nM | ≤ 1000 nM |
| CNc1nccc(Cn2ccc(-c3nn(-c4ccc(C(F)(F)F)cc4)c4ncccc34)cc2=O)n1 [Compound 97, 1-((2-(methylamino)pyrimidin-4-yl)methyl)-4-(1-(4-(trifluoromethyl)phenyl)-1H-pyrazolo[3,4-b]pyridin-3-yl)pyridin-2(1H)-one] | ≤ 100 nM | ≤ 1000 nM |
| CNc1ccnc(Cn2ccc(-c3nn(-c4ccc(C(F)(F)F)cc4)c4ncccc34)cc2=O)n1 [Compound 70, 1-((4-(methylamino)pyrimidin-2-yl)methyl)-4-(1-(4-(trifluoromethyl)phenyl)-1H-pyrazolo[3,4-b]pyridin-3-yl)pyridin-2(1H)-one] | ≤ 100 nM | ≤ 1000 nM |
| O=c1cc(-c2nn(-c3ccc(C(F)(F)F)cc3)c3ccccc23)ccn1Cc1ncccn1 [Compound 15, 1-(pyrimidin-2-ylmethyl)-4-(1-(4-(trifluoromethyl)phenyl)-1H-indazol-3-yl)pyridin-2(1H)-one] | ≤ 100 nM | ≤ 1000 nM |

Reference: patent US20250154127A1, “BICYCLIC HETEROARYL COMPOUNDS AND USES THEREOF” (ETERN BIOPHARMA (SHANGHAI) CO., LTD., priority 2022, published 2025)
